Results from patent publication US6384254B1, “Quaternary ammonium salt-containing polysiloxane, making method, and fiber or fabric treating agent composition” (Shin-Etsu Chemical Co., Ltd., priority 1999, dated 2002).

System: stephelococcus Aureus
Experiment: percentage loss of bacteria on treated cloth after ten launderings, shaking flask method
Assay type: cell-based
Conditions: polyester/cotton (65%/35%) cloth dipped in treating bath (2.0 wt% silicone solids; CE1 3.5 wt% solids), laundered ten times by 103 method of JIS L-0217
Experimental: The emulsion was diluted to an aqueous solution having a silicone solid concentration of 2.0% by weight. A polyester/cotton (65%/35%) mixed broad-cloth was dipped in the solution for one minute, nipped through rolls at a nip rate of 100%, dried at 135° C. for one minute and heat treated at 165° C. for 2 minutes. The thus treated cloth was laundered ten times in accordance with the 103 method of JIS L-0217 whereupon a percentage loss of stephelococcus Aureus was compared by the shaking flask method. The texture of the treated cloth was examined by finger touch before and after washing.
For comparison purpose, using a 38% solids methanol solution of 3-(trimethoxysilyl)propyldimethyloctadecylammonium chloride, a 3.5 wt% solids aqueous solution was prepared. A similar experiment was carried out. This is Comparative Example 1.

## CCCCCCCCCCCCCCCCCC[N+](C)(C)CCC[Si](OC)(OC)OC.[Cl-] [CE1, 3-(trimethoxysilyl)propyldimethyloctadecylammonium chloride]
  Bacteria loss after washing (%): 35%
